One block for each compound: values may come before it. Calls of active or inactive are those of the source. The rule behind the calls is not given here.
What was measured:
Mus musculus [1] = assay: Antidiabetic activity in human GLP-1R knockin male mouse model assessed as reduction in blood glucose level at 2 mg/kg, IG preadministered with compound for 1 hrs followed by first dose of glucose administration for 3 hrs and measured after 300 mins of second glucose administration by oral glucose tolerance test; type: functional, organism-based; details: time 540.0 min
Mus musculus [2] = assay: Appetite suppressing activity in human GLP-1R knockin male mouse model assessed as reduction in food intake at 30 mg/kg, sc measured at 12 to 24 hrs (light cycle); type: functional, organism-based; details: time 12-24 hrs
Mus musculus [3] = assay: Appetite suppressing activity in human GLP-1R knockin male mouse model assessed as reduction in food intake at 30 mg/kg, sc measured after 2.5 to 12 hrs; type: functional, organism-based; details: time 2.5-12 hrs
Mus musculus [4] = assay: Antidiabetic activity in human GLP-1R knockin male mouse model assessed as reduction in blood glucose level at 2 mg/kg, IG preadministered with compound for 1 hrs followed by glucose administration for 3 hrs by oral glucose tolerance test; type: functional, organism-based; details: time 4.0 hrs
[5] = target: T1, Glucagon-like peptide 1 receptor (Homo sapiens, UniProt P43220); assay: Agonist activity at human GLP-1R expressed in HEK293 cells assessed as cAMP accumulation incubated for 30 mins by LANCE ultra cAMP assay; type: functional, cell-based
[6] = Tmax in male ICR mouse at 10 mg/kg, po measured after 24 hrs by LC-MS/MS analysis; type: ADME, organism-based; details: in vivo
[7] = Clearance in male ICR mouse at 2 mg/kg, iv measured after 24 hrs by LC-MS/MS analysis; type: ADME, organism-based; details: in vivo
[8] = MRT (0 to t) in male ICR mouse at 2 mg/kg, iv measured after 24 hrs by LC-MS/MS analysis; type: ADME, organism-based; details: in vivo
[9] = Half-life in male ICR mouse at 2 mg/kg, iv measured after 24 hrs by LC-MS/MS analysis; type: ADME, organism-based; details: in vivo
[10] = Cmax in male ICR mouse at 10 mg/kg, po measured after 24 hrs by LC-MS/MS analysis; type: ADME, organism-based; details: in vivo
[11] = AUC (0 to t) in male ICR mouse at 2 mg/kg, iv measured after 24 hrs by LC-MS/MS analysis; type: ADME, organism-based; details: in vivo
[12] = target: T1, Glucagon-like peptide 1 receptor; assay: Partial agonist activity at LgBit-tagged GLP-1R (unknown origin) transfected in HEK293 cells co-transfected with Smbit-tagged beta-arrestin-1 assessed as beta-arrestin recruitment incubated for 5 mins by envision microplate reader analysis; type: functional, cell-based
[13] = Cmax in male ICR mouse at 2 mg/kg, iv measured after 24 hrs by LC-MS/MS analysis; type: ADME, organism-based; details: in vivo
[14] = target: T1, Glucagon-like peptide 1 receptor; assay: Partial agonist activity at LgBit-tagged GLP-1R (unknown origin) transfected in HEK293 cells co-transfected with Smbit-tagged beta-arrestin-1 assessed as beta-arrestin recruitment by measuring maximal efficacy incubated for 5 mins by envision microplate reader analysis relative to control; type: functional, cell-based
[15] = Oral bioavailability in male ICR mouse at 10 mg/kg measured after 24 hrs by LC-MS/MS analysis; type: ADME, organism-based; details: in vivo
[16] = Half-life in male ICR mouse at 10 mg/kg, po measured after 24 hrs by LC-MS/MS analysis; type: ADME, organism-based; details: in vivo
[17] = Apparent volume of distribution in male ICR mouse at 2 mg/kg, iv measured after 24 hrs by LC-MS/MS analysis; type: ADME, organism-based; details: in vivo, read-out: Vz
[18] = MRT (0 to t) in male ICR mouse at 10 mg/kg, po measured after 24 hrs by LC-MS/MS analysis; type: ADME, organism-based; details: in vivo
[19] = AUC (0 to t) in male ICR mouse at 10 mg/kg, po measured after 24 hrs by LC-MS/MS analysis; type: ADME, organism-based; details: in vivo
[20] = Oral bioavailability in male rat at 5 mg/kg; type: ADME, organism-based; details: in vivo
[21] = Half-life in male rat at 1 mg/kg, iv; type: ADME, organism-based; details: in vivo

T1 sequence (P43220 whole entry): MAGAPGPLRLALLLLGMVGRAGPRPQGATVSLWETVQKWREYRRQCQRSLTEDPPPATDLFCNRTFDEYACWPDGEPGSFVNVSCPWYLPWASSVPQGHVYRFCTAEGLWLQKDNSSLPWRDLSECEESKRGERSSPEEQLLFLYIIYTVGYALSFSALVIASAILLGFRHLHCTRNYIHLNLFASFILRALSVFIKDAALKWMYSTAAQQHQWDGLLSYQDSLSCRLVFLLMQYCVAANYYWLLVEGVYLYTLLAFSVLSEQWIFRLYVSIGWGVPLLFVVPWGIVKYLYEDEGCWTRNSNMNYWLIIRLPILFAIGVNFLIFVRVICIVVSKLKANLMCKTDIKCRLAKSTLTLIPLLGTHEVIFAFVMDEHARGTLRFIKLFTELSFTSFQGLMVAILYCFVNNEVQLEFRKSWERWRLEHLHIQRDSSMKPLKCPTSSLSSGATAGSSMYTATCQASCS

Compound: N#Cc1ccc(COc2cccc(C3CCN(Cc4nc5ccc(C(=O)O)cc5n4C[C@@H]4CCO4)CC3)n2)c(F)c1
- Activity (Mus musculus [1]): Active
- Activity (Mus musculus [2]): Active
- Activity (Mus musculus [3]): Active
- Activity (Mus musculus [4]): Active

- EC50 [5]: > 200 µM
Compound: CC(C)[C@H](NCc1nc2ccc(C(=O)O)cc2n1C[C@@H]1CCO1)C(=O)Nc1cccc([Se]Cc2ccc(C#N)cc2F)n1

- Tmax [6]: 0.5 h
- clearance [7]: 10.3 mL/min/kg
- MRT last at 24 h [8]: 0.4 h
- half-life [9]: 4.52 h
- Cmax [10]: 324 ng/mL
- AUC(0-t) at 24 h [11]: 3260 ng·h/mL
- EC50 [12]: > 200 µM
- Cmax [13]: 13400 ng/mL
- Emax [14]: 12%
- bioavailability [15]: 3.38%
- half-life [16]: 7.02 h
- Vd [17]: 4.25 L/kg
- MRT last at 24 h [18]: 2.88 h
- AUC(0-t) at 24 h [19]: 537 ng·h/mL
Compound: COc1cc(C#N)ccc1C[Se]c1cccc(N2C=NN(Cc3nc4c(F)cc(C(=O)O)cc4n3C[C@@H]3CCO3)CC2)n1

- bioavailability [20]: 23.4%
- half-life [21]: 0.47 h
Compound: N#Cc1ccc(C[Se]c2cccc(C3CCN(Cc4nc5ccc(C(=O)O)cc5n4C[C@@H]4CCO4)CC3)n2)c(F)c1

From ChEMBL document CHEMBL6096721, “Discovery of Selenium-Containing Derivatives as Potent and Orally Bioavailable GLP-1R Agonists” (J Med Chem, 2025)
